Assay results: paper PMC11461180, “Interaction with IP6K1 supports pyrophosphorylation of substrate proteins by the inositol pyrophosphate 5-InsP7” (Bioscience Reports, 2024)

Key:
[1] = target: T1, Casein Kinase II (CK2 holoenzyme) (Homo sapiens, UniProt P68400); experiment: [γ-32P]ATP phosphorylation of immunoprecipitated myc-AP3B1, autoradiography; type: biochemical; conditions: 15 µM TBCA preincubated 30 min on ice; 500 µM Mg-ATP; enzyme form (holoenzyme or GST-CK2α) not told for the TBCA lanes
T1 construct: gene CSNK2A1; commercial recombinant holoenzyme, heterotetramer; with Casein kinase II subunit beta
T1 sequence (P68400 whole entry): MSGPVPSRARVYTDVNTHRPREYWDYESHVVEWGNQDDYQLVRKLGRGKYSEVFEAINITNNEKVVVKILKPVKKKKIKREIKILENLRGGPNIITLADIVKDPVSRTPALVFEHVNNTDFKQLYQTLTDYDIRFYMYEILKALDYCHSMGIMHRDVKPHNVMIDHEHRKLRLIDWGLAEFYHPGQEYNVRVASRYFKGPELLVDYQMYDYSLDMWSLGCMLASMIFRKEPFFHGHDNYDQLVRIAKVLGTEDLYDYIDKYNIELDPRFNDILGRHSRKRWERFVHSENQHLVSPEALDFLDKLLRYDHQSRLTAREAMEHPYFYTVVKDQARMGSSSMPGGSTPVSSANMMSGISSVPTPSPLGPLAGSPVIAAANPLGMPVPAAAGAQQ
T1 sequence (P67870 2-215 partner): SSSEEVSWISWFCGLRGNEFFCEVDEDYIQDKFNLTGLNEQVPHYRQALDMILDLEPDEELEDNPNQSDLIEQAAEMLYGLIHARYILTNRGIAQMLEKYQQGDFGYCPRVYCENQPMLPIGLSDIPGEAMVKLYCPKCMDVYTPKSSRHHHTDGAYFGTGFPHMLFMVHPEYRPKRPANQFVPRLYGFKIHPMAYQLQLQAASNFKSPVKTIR

AP3B1 (myc-tagged) = target: T2, AP3B1 (myc-tagged) (Homo sapiens, UniProt O00203); experiment: pyrophosphorylation of immunoprecipitated protein, phosphorimager; type: biochemical; conditions: labelled compound; β-phosphate donor, covalent transfer to pSer of the protein, enzyme-independent; 6 mM MgCl2, pH 7.4, 37 °C, 15 min
T2 construct: full-length, N-terminal myc tag, expressed in HEK293T cells, immunoprecipitated on protein G-sepharose beads
T2 sequence (O00203 1-1094): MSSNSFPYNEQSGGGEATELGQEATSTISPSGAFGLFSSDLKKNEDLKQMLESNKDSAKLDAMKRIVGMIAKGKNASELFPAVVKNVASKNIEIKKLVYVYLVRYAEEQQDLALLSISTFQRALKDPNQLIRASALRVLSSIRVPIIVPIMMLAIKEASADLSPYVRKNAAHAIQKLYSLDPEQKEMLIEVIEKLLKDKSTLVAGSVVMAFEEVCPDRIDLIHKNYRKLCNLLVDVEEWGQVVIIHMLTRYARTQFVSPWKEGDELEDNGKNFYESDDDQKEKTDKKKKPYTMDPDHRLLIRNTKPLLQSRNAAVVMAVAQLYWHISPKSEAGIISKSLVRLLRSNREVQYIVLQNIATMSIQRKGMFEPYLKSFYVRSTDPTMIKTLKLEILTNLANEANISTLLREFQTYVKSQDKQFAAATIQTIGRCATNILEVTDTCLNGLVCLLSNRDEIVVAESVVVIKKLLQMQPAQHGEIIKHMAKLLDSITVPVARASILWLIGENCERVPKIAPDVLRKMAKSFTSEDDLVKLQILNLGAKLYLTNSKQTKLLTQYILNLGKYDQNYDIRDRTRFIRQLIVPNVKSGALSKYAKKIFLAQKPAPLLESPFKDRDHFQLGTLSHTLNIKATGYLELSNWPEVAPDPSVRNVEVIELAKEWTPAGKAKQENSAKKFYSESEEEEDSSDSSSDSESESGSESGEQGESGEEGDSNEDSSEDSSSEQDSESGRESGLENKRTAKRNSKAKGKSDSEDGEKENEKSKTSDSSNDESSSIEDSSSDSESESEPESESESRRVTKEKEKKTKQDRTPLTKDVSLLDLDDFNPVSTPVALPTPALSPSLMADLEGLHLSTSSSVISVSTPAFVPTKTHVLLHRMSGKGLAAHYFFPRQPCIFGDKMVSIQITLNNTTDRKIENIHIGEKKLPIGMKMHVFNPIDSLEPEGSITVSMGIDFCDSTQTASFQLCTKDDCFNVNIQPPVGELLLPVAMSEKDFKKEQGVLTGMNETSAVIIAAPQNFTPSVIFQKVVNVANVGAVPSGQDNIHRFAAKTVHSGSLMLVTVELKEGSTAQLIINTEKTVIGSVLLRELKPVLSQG

Structure (SMILES)	phosphorylation lowered at 15 μM [1]	pyrophosphorylation of immunoprecipitated protein, phosphorimager (AP3B1 (myc-tagged))
O=C(O)/C=C/c1cc(Br)c(Br)c(Br)c1Br [TBCA]	which was lowered when the CK2 inhibitor TBCA was added to the reaction	–
O=P(O)(O)O[C@H]1[C@@H](OP(=O)(O)O)[C@H](OP(=O)(O)O)[C@@H](OP(=O)(O)OP(=O)(O)O)[C@H](OP(=O)(O)O)[C@H]1OP(=O)(O)O [5-InsP7]	–	AP3B1 over-expressed under these two conditions was immunoprecipitated and incubated with radiolabeled 5-InsP7
